Laboratory results from patent publication US4891374A, “Imidazo- and triazolothiadiazines” (Hoechst Aktiengesellschaft, priority 1987, dated 1990).
pIC50: −log10 of the molar value. Structures can show the parent of a compound that is named as a salt.

Key:
[1] = tested on: Adriamycin (doxorubicin) induced inflammation; experiment: Adriamycin-induced inflammation (paw volume); assay type: in vivo, male Sprague-Dawley rats; conditions: for protective effect against Adriamycin-induced tissue destruction: orally once daily on 4 successive days
Source text: According to current opinion, aggressive oxygen radicals, which are formed to excess during the chronic inflammation process and, as highly toxic inflammation mediators themselves, perpetually maintain the destruction of connective tissue which proceeds via irreversible lipid peroxidation of the cell membranes, participate prominently in the progressive course, caused by a number of factors, of rheumatoid arthritis and other inflammatory disorders. As a consequence, pharmaceuticals having an antioxidative action and having the capability to deactivate these extremely cytotoxic oxygen radicals should allow specific intervention in the chronic course of the inflammation. A suitable animal model for this type of tissue destruction caused by oxygen radicals is Adriamycin (doxorubicin) induced inflammation in the rat. The investigations were carried out using the method of D. M. Siegel et al. (Inflammation 4 (1980), p. 233) on male Sprague-Dawley rats having a body weight between 200 and 230 g in groups each containing 7 animals, which received 0.1 mg of Adriamycin, dissolved in 0.1 ml of 0.9% strength sodium chloride solution, by means of subcutaneous injection into the left rear paw. The increase in paw volume was determined 72 hours later by plethysmographic measurement as a measure of the degree of inflammation. The test preparations were administered orally in 1% strength aqueous carboxymethylcellulose suspension once daily on 4 successive days, starting with the day of Adriamycin injection.

Adjuvant arthritis = Adjuvant arthritis (Pearson): reduction in increase in paw volume; assay type: in vivo, male rats of the Wistar-Lewis strain; conditions: 50 mg/kg p.o. once daily day 1 to day 5; reduction in increase in paw volume vs control
Protocol: The investigations were carried out using the method of Pearson (Arthrit. Rheum. 2 (1959), p. 44). The experimental animals used were male rats of the Wistar-Lewis strain having a body weight between 130 and 200 g. Compounds to be tested were administered orally (p.o.) once daily from day 1 to day 5 of the experiment in doses of 50 mg per kg of body weight. The animals in a control group were given only the vehicle. Each preparation group and the control group contained 8 animals. The criterion used to determine the action was the percentage reduction in the increase in paw volume compared to that of the untreated control group.

lymphocytes = experiment: Inhibition of immunopathological processes: adjuvant arthritis, immune activity of lymphocytes towards mitogens; assay type: in vivo, rat
[2] = tested on: lymphocytes from the spleen; experiment: Inhibition of immunopathological processes: type II collagen-induced arthritis, immune activity of spleen lymphocytes towards mitogens; assay type: in vivo, male Wistar rats; conditions: 20-day treatment phase
Source text: It is generally accepted today that the advanced course of inflammatory rheumatic disorders is caused mainly by disfunctions in the immune system and that causal therapy can only succeed using medicaments which are capable of interrupting these immunopathological processes.
In this experiment, arthritis was induced in male Wistar rats by means of type II collagen, which could be obtained by standard methods of Miller and Rhodes (Meth. Enzymol. 82 (1982), p. 33) from the nasal septum of the calf and, mixed with Freund's incomplete adjuvant, was injected intradermally into the animals. This immunization procedure was repeated 7 days later. 20 days after the initial immunization, the sick rats were divided into groups each containing 7 animals, which, in the subsequent 20-day treatment phase, received the respective test substance or the pure vehicle (control group) once daily orally.
On day 41 of the experiment, ie. one day after the final administration of substance, lymphocytes were obtained from the spleen of the experimental animals and their immune activity towards mitogens was investigated, since the immune status of lymphocytes is also sensitively impaired in this model.

in vivo [3] = conditions: rat, po
Protocol: The investigation was in each case carried out on 10 male Sprague-Dawley rats whose gastric mucous membrane had been sensitized by hunger stress. The body weight of the animals was between 200 and 300 g. While allowing free access to the drinking water, the feed was withdrawn 48 hours before administration of the test preparations until sacrifice of the animals. The rats were sacrificed 24 hours after oral administration of the substance, and the stomachs were removed, cleaned under running water and inspected for mucous membrane lesions. All macroscopically visible lesions were regarded as ulcers. The number of animals having ulcers was determined per dose, and this figure was used to calculate, by the method of Litchfield and Wilcoxon (J. Pharmacol. Exp. Ther. 96 (1949), p. 99), the UD50 values, ie. the doses at which lesions were caused in 50% of the animals.

in vivo [4] = conditions: mouse, ip
Protocol: The LD50 values were determined by standard methods from the mortality occurring within 7 days in NMRI (Naval Medical Research Institute) mice (6 animals per dose) after a single intraperitoneal (i.p.) administration.

[5] = tested on: mitochondrial lipid peroxidation; experiment: In-vitro inhibition of lipid peroxidation (thiobarbituric acid test), mitochondria; assay type: biochemical; conditions: rat liver mitochondria
Source text: (§1) Further convincing evidence of the pronounced protective action of the compounds according to the invention against aggressive oxygen radicals is provided by the thiobarbituric acid test of A. Ottolenghi (Arch. Biochem. Biophys. 79 (1959) pp. 355-363). Using this in-vitro method, the influence on microsomal and mitochondrial lipid peroxidation by antioxidatively active preparations can be determined from the malonodialdehyde produced on oxidative degradation of membrane-bound, polyunsaturated fatty acids.
(§2) Here too, the compounds of the formula I exerted a strong inhibitory action.

[6] = tested on: microsomal lipid peroxidation; experiment: In-vitro inhibition of lipid peroxidation (thiobarbituric acid test), microsomes; assay type: biochemical; conditions: rat liver microsomes
Source text: as §1, §2

5-lipoxygenase = experiment: Inhibition of 5-lipoxygenase in isolated polymorphonuclear granulocytes (LTB4 and 5-HETE formation); assay type: cell-based, human; conditions: 10^-5 to 10^-6 mol/l; pre-incubation 15 minutes; calcium ionophor A 23 187-stimulated; 15 minutes at 37° C.
Protocol: The inhibitory action of the compounds according to the invention on 5-lipoxygenase-catalyzed degradation of arachidonic acid was determined, as usual, in in-vitro experiments on isolated polymorphonuclear human granulocytes. To this purpose, cells stimulated by calcium ionophor A 23 187 (Calbiochem GmbH, Frankfurt/Main, FRG, Biochemical and Immunochemical Catalog 1985, p. 284) were incubated with ^14 C-labeled arachidonic acid, and the major radioactive degradation products of arachidonic acid formed after 15 minutes at 37° C. by biotransformation, 5-hydroxyeicosatetraenoic acid (5-HETE) and leucotriene B4 (LTB4), which has a particularly strong pro-inflammatory action, were determined quantitatively with the aid of a radio monitor after separation by high-pressure liquid chromatography (HPLC).

| SMILES | Adjuvant Arthritis (% inhibition at 50 mg/kg p.o.) (Adjuvant arthritis) [%] | TD50 at 24 h (in vivo [3]) [mg/kg] | LD50 at 168 h (in vivo [4]) [mg/kg] | other results |
| --- | --- | --- | --- | --- |
| COc1ccc2cc(C(C)C(=O)O)ccc2c1 (stereo not shown) [naproxen, 2-(6-methoxy2-naphthyl)-propionic acid, reference compound] | 55 | – | – | protective effect against Adriamycin-induced tissue destruction [1]: ineffective; stimulating action on suppressed immunological response (lymphocytes; doses up to 25 mg/kg): ineffective; curative effects on the greatly weakened immune system ([2]; once daily orally): no action |
| CC1SC2=NCCN2N=C1c1cc(C(C)(C)C)c(O)c(C(C)(C)C)c1 (stereo not shown) [Example 2, 3-(3,5-Di-tert.butyl-4-hydroxyphenyl)-2-methyl-6,7-dihydro-2H-imidazo[2,1-b][1,3,4]thiadiazine hydrochloride] | 63 | 200 | > 1200 | – |
| CC(C)(C)c1cc(C2=NN3C(=O)CN=C3SC2)cc(C(C)(C)C)c1O [Example 7, 3-(3,5-Di-tert.butyl-4-hydroxyphenyl)-6-oxo-6,7-dihydro-2H-imidazo[2,1-b][1,3,4]thiadiazine hydrobromide] | 59 | > 200 | 300 to 600 | – |
| CC(C)(C)c1cc(C2=NN3CCN=C3SC2)cc(C(C)(C)C)c1O [Example 1, 3-(3,5-Di-tert.butyl-4-hydroxyphenyl)-6,7-dihydro-2H-imidazo[2,1-b][1,3,4]thiadiazine hydrochloride] | 62 | 400 | > 1200 | inhibition of Adriamycin-induced tissue destruction ([1]; 80 mg/kg p.o. once daily on 4 successive days, paw volume 72 hours after Adriamycin): 55%; protective effect against Adriamycin-induced tissue destruction [1]: dose-dependent protective effect; pIC50 [5]: 5.40; pIC50 [6]: 6.30; inhibition of formation of 5-HETE (5-lipoxygenase): significantly inhibit; inhibition of formation of LTB4 (5-lipoxygenase): significantly inhibit; normalization of the immunoreactivity (lymphocytes; oral administration of 20 mg/kg): substantial normalization of the immunoreactivity; immune function of B lymphocytes ([2]; 25 mg/kg p.o. once daily): completely normalized; immune function of T lymphocytes ([2]; 25 mg/kg p.o. once daily): completely normalized |
| CC1Sc2nncn2N=C1c1cc(C(C)(C)C)c(O)c(C(C)(C)C)c1 (stereo not shown) [Example 5, 3-(3,5-Di-tert.butyl-4-hydroxyphenyl)-2-methyl-2H-s-triazolo[3,4-b][1,3,4]thiadiazine] | 56 | > 200 | > 1200 | – |
| CC(C)(C)c1cc(C2=NN3CC(=O)N=C3SC2)cc(C(C)(C)C)c1O [Example 6, 3-(3,5-Di-tert.butyl-4-hydroxyphenyl)-7-oxo-6,7-dihydro-2H-imidazo[2,1-b][1,3,4]-thiadiazine hydrobromide] | 73 | > 200 | 300 to 600 | – |
| CC(C)(C)c1cc(C2=Nn3ccnc3SC2)cc(C(C)(C)C)c1O [Example 4, 3-(3,5-Di-tert.butyl-4-hydroxyphenyl)-2H-imidazo[2,1-b][1,3,4]thiadiazine hydrochloride] | 69 | > 200 | 300 to 600 | – |
